Results reported in patent US20230159510A1, “NOVEL PRMT5 INHIBITORS” (AMGEN INC., priority 2020, published 2023).
Where two headings read alike, the source gives them in different places.

Legend:
HCT116 MTAP null cells = assay: HCT116 proliferation assay, MTAP null cells (CellTiter-Glo, 6 days); assay type: cell-based; conditions: read-out: Protif_ HCT116-MTAP null IC50
Method in brief: (§1)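 Seed cells in RPMI 1640 supplemented with 10% FBS and incubate overnight at 37° C under 5% CO2. Treat with serially diluted compound (threefold steps, 8 or 9 points, highest 1 or 10 µM) or DMSO alone, then quantify viability by luminescence.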

HCT116 WT cells = assay: HCT116 proliferation assay, WT cells (CellTiter-Glo, 6 days); assay type: cell-based; conditions: read-out: Prolif_HCT116-WT IC50
Method in brief: as §1

IC50 (HCT116 MTAP null cells; HCT116-MTAP null, 144 h) [nM] | IC50 (HCT116 WT cells; Homo sapiens, HCT-116, 144 h) [nM] | IC50 (HCT116 MTAP null cells) [nM] | IC50 (HCT116 WT cells) [nM] | Compound | IC50 (HCT116 MTAP null cells; 144 h) [nM]
308 | > 10000 |  |  | Cc1nc(CN(C(=O)c2ccc3nc(N)c(Br)cc3c2)[C@H](C)c2ncccn2)ccc1C#N [Example 796, (R)-2-amino-3-bromo-N-((5-cyano-6-methylpyridin-2-yl)methyl)-N-(1-(pyrimidin-2-yl)ethyl)quinoline-6-carboxamide] | 
165 | > 1000 |  |  | Cc1cc2cc(C(=O)N(Cc3ccc(N4CCCCC4)cc3)Cc3ccnc4[nH]ccc34)ccc2nc1N [Example 563, 2-amino-3-methyl-N-[[4-(1-piperidyl)phenyl]methyl]-N-(1H-pyrrolo [2,3-b]pyridin-4-ylmethyl)quinoline-6-carboxamide] | 
 |  | 385 | 5260 | 2-amino-N-((3R,4S)-3-fluorotetrahydro-2H-pyran-4-yl)-3-methyl-N-((5-(trifluoromethyl)-2-pyridinyl)methyl)-6-quinolinecarboxamide and 2-amino-N-((3S,4R)-3-fluorotetrahydro-2H-pyran-4-yl)-3-methyl-N-((5-(trifluoromethyl)-2-pyridinyl)methyl)-6-quinolinecarboxamide [Example 747] | 
139 | 7260 |  |  | C[C@H](c1ncccn1)N(Cc1ccc(OC(F)F)nn1)C(=O)c1ccc2nc(N)c(Br)cc2c1 [Example 746, (R)-2-amino-3-bromo-N-((6-(difluoromethoxy)pyridazin-3-yl)methyl)-N-(1-(pyrimidin-2-yl)ethyl)quinoline-6-carboxamide] | 
304 | > 10000 |  |  | C[C@H](c1ncccn1)N(Cc1ccc(Cl)nn1)C(=O)c1ccc2nc(N)c(Br)cc2c1 [Example 773, (R)-2-amino-3-bromo-N-((6-chloropyridazin-3-yl)methyl)-N-(1-(pyrimidin-2-yl)ethyl)quinoline-6-carboxamide] | 
43 | 1040 |  |  | Cc1cc2cc(C(=O)N(Cc3ccc(C(F)(F)F)cn3)[C@@H]3CCC[C@H]3C#N)ccc2nc1N (single isomer, unassigned) [Example 812] | 
264 | 6810 |  |  | Cc1cc2cc(C(=O)N(Cc3ccc(C#N)nn3)[C@H](C)c3ncccc3F)ccc2nc1N [Example 728, 2-amino-N-((6-cyano-3-pyridazinyl)methyl)-N-((1R)-1-(3-fluoro-2-pyridinyl)ethyl)-3-methyl-6-quinolinecarboxamide] | 
220 | > 10000 |  |  | COc1ccc(CN(C(=O)c2cnc3nc(N)c(Br)cc3c2)[C@H](C)c2ncccc2F)nn1 [Example 735, 7-amino-6-bromo-N-((1R)-1-(3-fluoro-2-pyridinyl)ethyl)-N-((6-methoxy-3-pyridazinyl)methyl)-1,8-naphthyridine-3-carboxamide] | 
260 | 3400 |  |  | Cc1cc2cc(C(=O)N(Cc3ccc(C(F)(F)F)cn3)[C@@H]3CCOC[C@H]3F)ccc2nc1N (single isomer, unassigned) [Example 781] | 
64 | 1590 |  |  | CC[C@H](c1ncccn1)N(Cc1ccc(C(F)(F)F)cn1)C(=O)c1cnc2nc(N)c(I)cc2c1 (single isomer, unassigned) [Example 788] | 
95 | 2150 |  |  | Cc1cc2cc(C(=O)N(Cc3ccc(C(F)(F)F)cn3)[C@@H]3COCC[C@H]3F)ccc2nc1N (mixture of isomers) [Example 749, 2-amino-N-((3R,4R)-4-fluorotetrahydro-2H-pyran-3-yl)-3-methyl-N-((5-(trifluoromethyl)-2-pyridinyl)methyl)-6-quinolinecarboxamide and 2-amino-N-((3S,4S)-4-fluorotetrahydro-2H-pyran-3-yl)-3-methyl-N-((5-(trifluoromethyl)-2-pyridinyl)methyl)-6-quinolinecarboxamide] | 
523 | 3190 |  |  | CC(C)CN(Cc1ccc(C(F)(F)F)cn1)C(=O)c1ccc2nc(N)c(-c3ccccc3)cc2c1 [Example 834, 2-Amino-N-(2-methylpropyl)-3-phenyl-N-((5-(trifluoromethyl)-2-pyridinyl)methyl)-6-quinolinecarboxamide] | 
355 | > 10000 |  |  | C[C@H](c1ncccc1F)N(Cc1ccc(Br)nn1)C(=O)c1ccc2nc(N)c(Cl)cc2c1 [Example 739, 2-amino-N-((6-bromo-3-pyridazinyl)methyl)-3-chloro-N-((1R)-1-(3-fluoro-2-pyridinyl)ethyl)-6-quinolinecarboxamide] | 
760 | > 1000 |  |  | Cc1cc2cc(C(=O)N(Cc3ccc(N4CCC(C(N)=O)CC4)cc3)Cc3ccnc4[nH]ccc34)ccc2nc1N [Example 573, N-((1H-pyrrolo[2,3-b]pyridin-4-yl)methyl)-2-amino-N-(4-(4-carbamoylpiperidin-1-yl)benzyl)-3-methylquinoline-6-carboxamide] | 
40 | 1170 |  |  | Cc1cc2cc(C(=O)N(Cc3ccc(OC(F)F)nn3)C(C)c3ncccn3)ccc2nc1N (stereo not drawn) [Example 742, 2-amino-N-((6-(difluoromethoxy)pyridazin-3-yl)methyl)-3-methyl-N-(1-(pyrimidin-2-yl)ethyl)quinoline-6-carboxamide] | 
42 | 2170 |  |  | N#CC[C@@H](C1CC1)N(Cc1ccc(C#N)cn1)C(=O)c1ccc2nc(N)c(I)cc2c1 [Example 837, (S)-2-amino-N-(2-cyano-1-cyclopropylethyl)-N-((5-cyanopyridin-2-yl)methyl)-3-iodoquinoline-6-carboxamide] | 
261 | 4700 |  |  | Cc1cc2cc(C(=O)N(Cc3ncccc3Cl)[C@H](C)c3ncccn3)c(F)cc2nc1N (single isomer, unassigned) [Example 784] | 
144 | 1740 |  |  | CO[C@@H]1Cc2ccccc2[C@H]1N(Cc1ccc(C(F)(F)F)cn1)C(=O)c1ccc2nc(N)c(C)cc2c1 [Example 751, 2-amino-N-((1R,2R)-2-methoxy-2,3-dihydro-1H-inden-1-yl)-3-methyl-N-((5-(trifluoromethyl)-2-pyridinyl)methyl)-6-quinolinecarboxamide] | 
59 | 2330 |  |  | Cc1cc2cc(C(=O)N(Cc3ccc(C(F)(F)F)cn3)[C@H](C)c3ccc(F)cn3)ccc2nc1N (single isomer, unassigned) [Example 484] | 
448 | 8010 |  |  | Cc1cc2cc(C(=O)N(Cc3ccc(C(F)(F)F)cn3)CC(C)C)c(O)cc2nc1N [Example 835, 2-Amino-7-hydroxy-3-methyl-N-(2-methylpropyl)-N-((5-(trifluoromethyl)-2-pyridinyl)methyl)-6-quinolinecarboxamide] | 
231 | > 10000 |  |  | COC[C@H](C1CC1)N(Cc1ccc(N2CCOCC2)nn1)C(=O)c1ccc2nc(N)c(Br)cc2c1 [Example 732, 2-amino-3-bromo-N-((1S)-1-cyclopropyl-2-methoxyethyl)-N-((6-(4-morpholinyl)-3-pyridazinyl)methyl)-6-quinolinecarboxamide] | 
15 | 362 |  |  | COC[C@@H](C1CC1)N(Cc1ccc(C(F)(F)F)cn1)C(=O)c1ccc2nc(N)c(C)cc2c1 (single isomer, unassigned) [Example 809] | 
162 | 6150 |  |  | COC[C@@H](C)N(Cc1ccc(OC)nn1)C(=O)c1ccc2nc(N)c(C)cc2c1 [Example 789, 2-amino-N-((2R)-1-methoxy-2-propanyl)-N-((6-methoxy-3-pyridazinyl)methyl)-3-methyl-6-quinolinecarboxamide] | 
56 | 1390 |  |  | Cc1cc2cc(C(=O)N(Cc3ccc(C(F)(F)F)cn3)C(C)c3ncon3)ccc2nc1N (stereo not drawn) [Example 795, N-(1-(1,2,4-oxadiazol-3-yl)ethyl)-2-amino-3-methyl-N-((5-(trifluoromethyl)pyridin-2-yl)methyl)quinoline-6-carboxamide] | 
293 | > 10000 |  |  | CC[C@H](c1ncccn1)N(Cc1ccc(C#N)cn1)C(=O)c1ccc2nc(N)c(Br)cc2c1 [Example 759, (R)-2-amino-3-bromo-N-((5-cyanopyridin-2-yl)methyl)-N-(1-(pyrimidin-2-yl)propyl)quinoline-6-carboxamide] | 
783 | > 10000 |  |  | C[C@H](c1ncccn1)N(Cc1ccc(OCC(F)(F)F)nn1)C(=O)c1cnc2nc(N)c(Br)cc2c1 [Example 793, (R)-7-amino-6-bromo-N-(1-(pyrimidin-2-yl)ethyl)-N-((6-(2,2,2-trifluoroethoxy)pyridazin-3-yl)methyl)-1,8-naphthyridine-3-carboxamide] | 
202 | > 1000 |  |  | Cc1cc2cc(C(=O)N(Cc3ccc(N4CCC(C(N)=O)CC4)cc3)CC(C)C3CC3)ccc2nc1N (stereo not drawn) [Example 571, 2-amino-N-(4-(4-carbamoylpiperidin-1-yl)benzyl)-N-(2-cyclopropylpropyl)-3-methylquinoline-6-carboxamide] | 
380 | > 10000 |  |  | CC1COCCC1N(Cc1ccc(C(F)(F)F)cn1)C(=O)c1ccc2nc(N)c(Br)cc2c1 (stereo not drawn) [Example 830, 2-amino-3-bromo-N-(3-methyltetrahydro-2H-pyran-4-yl)-N-((5-(trifluoromethyl)pyridin-2-yl)methyl)quinoline-6-carboxamide] | 
140 | > 1000 |  |  | Cc1cc2cc(C(=O)N(Cc3cc[nH]c3)Cc3ccc(C(F)(F)F)cn3)ccc2nc1N [Example 583, N-((1H-pyrrol-3-yl)methyl)-2-amino-3-methyl-N-((5-(trifluoromethyl)pyridin-2-yl)methyl)quinoline-6-carboxamide] | 

Compound | IC50 (HCT116 MTAP null cells; HCT116-MTAP null, 144 h) [nM] | IC50 (HCT116 WT cells; Homo sapiens, HCT-116, 144 h) [nM] | IC50 (HCT116 MTAP null cells) [nM] | IC50 (HCT116 WT cells) [nM] | IC50 (HCT116 MTAP null cells; 144 h) [nM]
[2H]C([2H])([2H])c1cc2cc(C(=O)N(Cc3ccc(C(F)(F)F)cn3)[C@H](C)c3ncccn3)ccc2nc1N [Example 399, (R)-2-amino-3-(methyl-d3)-N-(1-(pyrimidin-2-yl)ethyl)-N-((5-(trifluoromethyl)pyridin-2-yl)methyl)quinoline-6-carboxamide] |  | 872 |  |  | 36
